# In publication PMC7578299, “The antiviral effects of baloxavir marboxil against influenza A virus infection in ferrets” (Influenza and Other Respiratory Viruses, 2020):
# Columns and labels:
# Type in all cases: in vitro ADME
# [1] = Metabolic stability in liver microsomes, monkey; conditions: for % Residual in liver microsome: monkey, 2 μmol/L, pH 7.4
# Procedure: (§1) Liver microsomes were prepared from ferrets, rats, dogs, and monkeys, as previously described. ^28 Human liver microsomes were obtained from Sekisui‐XenoTech, LLC and pooled (n = 15). Metabolic stability of the compounds in liver microsomes was tested in duplicate. Oseltamivir and cefcapene pivoxil were used as reference compounds. Liver microsomes at 0.5 mg/mL concentration (final volume of 0.2 mL) were incubated in Tris‐HCl buffer (pH 7.4), containing 50 mmol/L Tris‐HCl, 150 mmol/L KCl, 10 mmol/L MgCl2. The hydrolysis reaction was initiated by applying the test compound solution (final concentration 2 μmol/L). After incubation for 10, 20, and 30 minutes at 37°C, the hydrolysis was terminated by the addition of twofold volume of ice‐cold acetonitrile/methanol (1:1, v/v). Samples were centrifuged at 3000 rpm for 10 minutes prior to LC‐MS/MS analysis of compounds in the supernatants.
# [2] = Metabolic stability in liver microsomes, dog; conditions: for % Residual in liver microsome: 2 μmol/L, pH 7.4
# Procedure: as §1
# [3] = Metabolic stability in liver microsomes, human; conditions: 2 μmol/L, pH 7.4
# Procedure: as §1
# [4] = Metabolic stability in liver microsomes, ferret; conditions: for % Residual in liver microsome: ferret, 2 μmol/L, pH 7.4
# Procedure: as §1
# [5] = Metabolic stability test, control (microsome free); conditions: 2 μmol/L, pH 7.4
# Procedure: as §1
# [6] = Metabolic stability in liver microsomes, rat; conditions: for % Residual in liver microsome: 2 μmol/L, pH 7.4
# Procedure: as §1
smiles,measurement,setting,value
"CC/C=C(\C(=O)N[C@@H]1C(=O)N2C(C(=O)OCOC(=O)C(C)(C)C)=C(COC(N)=O)CS[C@H]12)c1csc(N)n1.Cl [Cefcapene pivoxil, cefcapene pivoxil hydrochloride]",% Residual in liver microsome Individual value,[1],0.0%
"CCOC(=O)C1=C[C@@H](OC(CC)CC)[C@H](NC(C)=O)[C@@H](N)C1 [OSP, oseltamivir phosphate]",% Residual in liver microsome,[2]; 10 min,115.8%
same,% Residual in liver microsome,[2]; 20 min,109.6%
same,% Residual in liver microsome,[2]; 30 min,110.5%
same,stability in liver microsomes (in words),[2]; microsomes,stable
same,% Residual in liver microsome,[3]; 10 min,89.8%
same,% Residual in liver microsome,[3]; 20 min,64.8%
same,% Residual in liver microsome,[3]; 30 min,49.7%
same,% Residual in liver microsome,[1]; 10 min,73.6%
same,% Residual in liver microsome,[1]; 20 min,59.1%
same,% Residual in liver microsome,[1]; 30 min,45.2%
same,% Residual in liver microsome,[4]; 10 min,106.5%
same,% Residual in liver microsome,[4]; 20 min,107.2%
same,% Residual in liver microsome,[4]; 30 min,109.0%
same,stability in liver microsomes (in words),[4]; microsomes,stable
same,"% Residual, Control (Microsome free)",[5]; 10 min,106.4%
same,"% Residual, Control (Microsome free)",[5]; 20 min,105.4%
same,"% Residual, Control (Microsome free)",[5]; 30 min,111.3%
same,% Residual in liver microsome,[6]; 10 min,110.8%
same,% Residual in liver microsome,[6]; 20 min,119.2%
same,% Residual in liver microsome,[6]; 30 min,117.3%
same,stability in liver microsomes (in words),[6]; microsomes,stable
